Measured values taken from ChEMBL document CHEMBL4364325, “Synthesis, pharmacological and structural studies of 5-substituted-3-(1-arylmethyl-1,2,3,6-tetrahydropyridin-4-yl)-1H-indoles as multi-target ligands of aminergic GPCRs” (Eur J Med Chem, 2019).
The source made the active and inactive calls. The calls are words filed in the database; no cut-off is given here.

How the values were obtained:
[1] = biological target: T1, 5-hydroxytryptamine receptor 2A (Homo sapiens, UniProt P28223); format: functional, cell-based
Description: Antagonist activity at human 5HT2A receptor expressed in CHOK1 cells assessed as inhibition of 5-HT induced inositol phosphate production incubated for 24 hrs followed by 5-HT addition by HTRF assay

[2] = biological target: T1, 5-hydroxytryptamine receptor 2A; test: Displacement of [3H]ketanserin from human 5HT2A receptor expressed in HEK293 cell membranes measured after 30 mins; format: cell-based
Homo sapiens = species: Homo sapiens; test: Selectivity ratio of Kb for human 5HT2A receptor expressed in CHOK1 cells to Kb for human D2S receptor expressed in CHOK1 cells; format: cell-based
[3] = biological target: T2, 5-hydroxytryptamine receptor 1A (Homo sapiens) (UniProt P08908); test: Agonist activity at human 5HT1A receptor expressed in HEK293 cell membranes assessed as maximal inhibition of forskolin induced cAMP production incubated for 24 hrs followed by forskolin addition by HTRF assay relative to control; format: functional, cell-based
T2 sequence (whole entry): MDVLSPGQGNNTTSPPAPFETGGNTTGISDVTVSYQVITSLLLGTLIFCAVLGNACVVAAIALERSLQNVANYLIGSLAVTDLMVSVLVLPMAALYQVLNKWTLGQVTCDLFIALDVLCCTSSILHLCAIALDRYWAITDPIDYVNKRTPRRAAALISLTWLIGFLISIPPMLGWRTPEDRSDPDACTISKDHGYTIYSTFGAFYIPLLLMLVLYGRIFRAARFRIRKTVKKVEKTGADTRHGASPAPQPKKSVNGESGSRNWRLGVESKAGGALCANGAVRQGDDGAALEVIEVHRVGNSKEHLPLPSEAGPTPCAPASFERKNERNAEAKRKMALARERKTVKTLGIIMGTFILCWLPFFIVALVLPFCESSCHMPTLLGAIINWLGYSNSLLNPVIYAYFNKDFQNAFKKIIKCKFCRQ

D(2) dopamine receptor [4] = biological target: T3, D(2) dopamine receptor (Homo sapiens, UniProt P14416); test: Antagonist activity at human D2S receptor expressed in CHOK1 cells assessed as suppression of dopamine-induced inhibition of forskolin-stimulated cAMP accumulation preincubated for 5 mins followed by dopamine and forskolin addition and measured after 10 mins by HTRF assay; format: functional, cell-based
[5] = biological target: T4, 5-hydroxytryptamine receptor 1A (Homo sapiens, UniProt P08908); test: Displacement of [3H]8-OH-DPAT from human 5HT1A receptor expressed in HEK293 cell membranes measured after 120 mins
T4 sequence (P08908 whole entry): T2 sequence (whole entry)

D(2) dopamine receptor [6] = biological target: T3, D(2) dopamine receptor; test: Agonist activity at human D2 receptor expressed in CHOK1 cells assessed as inhibition of forskolin induced cAMP production at 0.1 nM to 100 uM incubated for 10 mins followed by forskolin addition and measured after 5 mins by HTRF assay; format: functional, cell-based
[7] = biological target: T1, 5-hydroxytryptamine receptor 2A; test: Antagonist activity at human 5HT2A receptor expressed in CHOK1 cells assessed as inhibition of inositol phosphate production incubated for 24 hrs followed by 5-HT addition by Cheng-Prusoff equation analysis; format: functional, cell-based
D(2) dopamine receptor [8] = biological target: T3, D(2) dopamine receptor; test: Displacement of [3H]Spiperone from human D2S receptor expressed in CHOK1 cell membranes measured after 120 mins
D(2) dopamine receptor [9] = biological target: T3, D(2) dopamine receptor; test: Competitive antagonist activity at human D2S receptor expressed in CHOK1 cells assessed as quinpirole mediated inhibition of forskolin induced cAMP accumulation by measuring parallel rightward shifts of quinpirole concentration-response curves incubated for 10 mins by HTRF assay based Schild plot analysis; format: functional, cell-based
[10] = biological target: T1, 5-hydroxytryptamine receptor 2A; test: Displacement of [3H]ketanserin from human 5HT2A receptor expressed in HEK293 cell membranes at 10 uM measured after 30 mins relative to control
D(2) dopamine receptor [11] = biological target: T3, D(2) dopamine receptor; test: Displacement of [3H]Spiperone from human D2S receptor expressed in CHOK1 cell membranes at 10 uM measured after 120 mins relative to control
D(2) dopamine receptor [12] = biological target: T3, D(2) dopamine receptor; test: Displacement of [3H]Spiperone from human D2S receptor expressed in CHO cell membranes
D(3) dopamine receptor = D(3) dopamine receptor (Homo sapiens, UniProt P35462); test: Displacement of [3H]Spiperone from human D3 receptor expressed in commercial cell membranes
[13] = biological target: T4, 5-hydroxytryptamine receptor 1A; test: Displacement of [3H]8-OH-DPAT from human 5HT1A receptor expressed in HEK293 cell membranes
D(1A) dopamine receptor = D(1A) dopamine receptor (Homo sapiens, UniProt P21728); test: Displacement of [3H]SCH23390 from human D1 receptor expressed in commercial cell membranes
[14] = biological target: T1, 5-hydroxytryptamine receptor 2A; test: Displacement of [3H]ketanserin from human 5HT2A receptor expressed in CHO cell membranes
Mus musculus [15] = test: Antidepressant activity in Swiss mouse assessed as decrease in immobility time at 50 mg/kg, ip as acute administration measured during last 4 mins for 6 mins by forced swim test; format: functional, organism-based
Mus musculus [16] = test: Cognition enhancing effect in Swiss mouse assessed as increase in latency index at 50 mg/kg, ip as acute administration measured after 24 hrs by passive avoidance test; format: functional, organism-based
Mus musculus [17] = test: Antidepressant activity in Swiss mouse assessed as increase in latency time at 50 mg/kg, ip as acute administration measured during last 4 mins for 6 mins by forced swim test; format: functional, organism-based
Mus musculus [18] = test: Antipsychotic activity in Swiss mouse assessed as decrease in amphetamine-induced hyperlocomotion at 50 mg/kg, ip pretreated for 60 mins followed by amphetamine administration and measured for 30 mins; format: functional, organism-based
[19] = Toxicity in Swiss mouse assessed as induction of motor coordination impairments at 50 mg/kg, ip measured after 60 mins by chimney test; format: organism-based; settings: in vivo, 1 h

T1 sequence (P28223 whole entry): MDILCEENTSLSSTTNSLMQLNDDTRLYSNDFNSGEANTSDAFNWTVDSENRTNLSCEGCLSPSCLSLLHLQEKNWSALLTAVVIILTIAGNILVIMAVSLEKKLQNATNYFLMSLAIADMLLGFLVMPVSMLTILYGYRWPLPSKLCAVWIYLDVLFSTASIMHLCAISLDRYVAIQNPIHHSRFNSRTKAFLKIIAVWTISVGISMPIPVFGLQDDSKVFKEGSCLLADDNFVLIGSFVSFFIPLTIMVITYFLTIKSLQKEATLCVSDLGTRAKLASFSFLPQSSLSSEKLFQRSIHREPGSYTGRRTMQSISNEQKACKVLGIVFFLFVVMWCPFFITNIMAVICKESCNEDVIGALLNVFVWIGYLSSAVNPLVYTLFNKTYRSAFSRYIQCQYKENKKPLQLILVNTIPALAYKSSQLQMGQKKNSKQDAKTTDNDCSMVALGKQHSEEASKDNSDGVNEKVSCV
T3 sequence (P14416 whole entry): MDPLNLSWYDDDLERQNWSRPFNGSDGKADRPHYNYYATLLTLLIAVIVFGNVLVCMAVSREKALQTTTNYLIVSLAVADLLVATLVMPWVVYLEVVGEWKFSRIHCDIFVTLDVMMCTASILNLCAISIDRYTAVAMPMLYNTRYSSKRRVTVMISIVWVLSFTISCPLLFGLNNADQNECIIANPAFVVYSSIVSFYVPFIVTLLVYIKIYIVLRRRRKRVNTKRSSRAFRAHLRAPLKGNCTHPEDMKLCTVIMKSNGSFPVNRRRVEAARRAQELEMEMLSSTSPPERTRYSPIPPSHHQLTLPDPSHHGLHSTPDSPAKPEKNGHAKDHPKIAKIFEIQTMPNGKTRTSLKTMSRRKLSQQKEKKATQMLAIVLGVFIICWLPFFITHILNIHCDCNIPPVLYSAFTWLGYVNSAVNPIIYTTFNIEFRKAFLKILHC
Sequence of D(1A) dopamine receptor (P21728 whole entry): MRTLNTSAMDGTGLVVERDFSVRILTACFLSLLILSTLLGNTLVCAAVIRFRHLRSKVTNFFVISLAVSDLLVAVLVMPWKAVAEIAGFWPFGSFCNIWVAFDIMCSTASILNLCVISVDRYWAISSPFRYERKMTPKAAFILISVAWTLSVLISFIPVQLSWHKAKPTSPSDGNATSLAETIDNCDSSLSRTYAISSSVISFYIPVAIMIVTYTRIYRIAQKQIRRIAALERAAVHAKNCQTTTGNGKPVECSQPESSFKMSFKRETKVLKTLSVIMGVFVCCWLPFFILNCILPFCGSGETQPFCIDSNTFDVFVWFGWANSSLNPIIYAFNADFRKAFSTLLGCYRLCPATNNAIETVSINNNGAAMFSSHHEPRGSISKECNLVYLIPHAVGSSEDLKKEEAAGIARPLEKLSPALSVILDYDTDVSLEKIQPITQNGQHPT
Sequence of D(3) dopamine receptor (P35462 whole entry): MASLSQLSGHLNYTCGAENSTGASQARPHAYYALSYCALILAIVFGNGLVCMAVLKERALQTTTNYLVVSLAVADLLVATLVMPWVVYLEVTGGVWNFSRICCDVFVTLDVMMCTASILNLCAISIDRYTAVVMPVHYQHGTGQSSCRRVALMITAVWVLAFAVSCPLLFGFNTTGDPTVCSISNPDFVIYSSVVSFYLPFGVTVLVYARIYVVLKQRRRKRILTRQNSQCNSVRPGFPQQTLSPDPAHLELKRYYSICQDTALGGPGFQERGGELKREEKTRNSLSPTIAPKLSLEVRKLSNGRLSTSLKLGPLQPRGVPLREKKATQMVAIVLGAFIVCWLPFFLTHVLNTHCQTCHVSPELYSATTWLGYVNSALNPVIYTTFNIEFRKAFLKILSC

SMILES: COc1cccc(CN2CC=C(c3c[nH]c4ccccc34)CC2)c1
- IC50 [1]: 7980 nM
- Ki [2]: 194 nM
- Selectivity ratio (Homo sapiens): 200
- Emax [3]: 76%
- Activity (D(2) dopamine receptor [4]): Dose-dependent effect
- Ki [5]: 243 nM
- Activity (D(2) dopamine receptor [6]): inactive
- Kb [7]: 803 nM
- Ki (D(2) dopamine receptor [8]): 26.9 nM
- Activity (D(2) dopamine receptor [9]): Dose-dependent effect
- Kb (D(2) dopamine receptor [9]): 4.95 nM
- pKb (D(2) dopamine receptor [9]): 8.31

SMILES: C1=C(c2c[nH]c3ccccc23)CCN(Cc2ccco2)C1
- Ki [2]: 173 nM
- Ki [5]: 752 nM
- Ki (D(2) dopamine receptor [8]): 257 nM

SMILES: CC(C)Oc1ccc2[nH]cc(C3=CCN(Cc4cccs4)CC3)c2c1
- inhibition [10]: 14%
- Ki [5]: 214 nM
- Ki (D(2) dopamine receptor [8]): 465 nM

SMILES: COc1ccc2[nH]cc(C3=CCN(Cc4ccco4)CC3)c2c1
- inhibition [10]: 15%
- Ki [5]: 195 nM
- Ki (D(2) dopamine receptor [8]): 142 nM

SMILES: CCOc1ccc2[nH]cc(C3=CCN(Cc4ccccc4)CC3)c2c1
- Ki [2]: 2100 nM
- Ki [5]: 220 nM

SMILES: CC(C)Oc1ccc2[nH]cc(C3=CCN(Cc4ccccc4)CC3)c2c1
- inhibition [10]: 32%
- Ki [5]: 203 nM
- Ki (D(2) dopamine receptor [8]): 321 nM

SMILES: COc1cccc(CN2CC=C(c3c[nH]c4ccc(OC(C)C)cc34)CC2)c1
- inhibition [10]: 43%
- Ki [5]: 290 nM
- Ki (D(2) dopamine receptor [8]): 299 nM

SMILES: COc1ccc(CN2CC=C(c3c[nH]c4ccccc34)CC2)cc1
- inhibition [10]: 52%
- Ki [5]: 243 nM
- Ki (D(2) dopamine receptor [8]): 87.3 nM

SMILES: COc1ccc(CN2CC=C(c3c[nH]c4ccc(OC(C)C)cc34)CC2)cc1
- inhibition [10]: 36%
- Ki [5]: 378 nM
- Ki (D(2) dopamine receptor [8]): 165 nM

SMILES: COc1ccc2[nH]cc(C3=CCN(Cc4ccccc4)CC3)c2c1
- inhibition [10]: 41%
- Ki [5]: 139 nM
- Ki (D(2) dopamine receptor [8]): 62.7 nM

SMILES: CCOc1ccc2[nH]cc(C3=CCN(Cc4cccs4)CC3)c2c1
- inhibition [10]: 0%
- Ki [5]: 139 nM
- Ki (D(2) dopamine receptor [8]): 166 nM

SMILES: COc1ccc2[nH]cc(C3=CCN(Cc4cccs4)CC3)c2c1
- Ki [2]: 1890 nM
- Ki [5]: 157 nM
- Ki (D(2) dopamine receptor [8]): 141 nM

SMILES: CCOc1ccc2[nH]cc(C3=CCN(Cc4ccco4)CC3)c2c1
- inhibition [10]: 47%
- Ki [5]: 486 nM
- inhibition (D(2) dopamine receptor [11]): 62%

SMILES: CC(C)Oc1ccc2[nH]cc(C3=CCN(Cc4ccco4)CC3)c2c1
- inhibition [10]: 5%
- Ki [5]: 431 nM
- inhibition (D(2) dopamine receptor [11]): 51%

SMILES: NCCc1c[nH]c2ccc(C(N)=O)cc12
- Emax [3]: 95%

SMILES: CCOc1ccc2[nH]cc(C3=CCN(Cc4ccc(OC)cc4)CC3)c2c1
- inhibition [10]: 38%
- Ki [5]: 194 nM
- Ki (D(2) dopamine receptor [8]): 132 nM

SMILES: COc1ccc2[nH]cc(C3=CCN(Cc4cc(=O)[nH]c5ccccc45)CC3)c2c1
- Ki (D(2) dopamine receptor [12]): 58 nM
- Ki (D(3) dopamine receptor): 614 nM
- Ki [13]: 125 nM
- Ki (D(1A) dopamine receptor): 148 nM
- Ki [14]: 358 nM

SMILES: C1=C(c2c[nH]c3ccccc23)CCN(Cc2ccccc2)C1
- IC50 [1]: 2620 nM
- Ki [2]: 125 nM
- Selectivity ratio (Homo sapiens): 80
- Emax [3]: 89%
- Activity (D(2) dopamine receptor [4]): Dose-dependent effect
- Ki [5]: 354 nM
- Activity (D(2) dopamine receptor [6]): inactive
- Kb [7]: 279 nM
- Ki (D(2) dopamine receptor [8]): 25.8 nM
- Activity (D(2) dopamine receptor [9]): Dose-dependent effect
- Kb (D(2) dopamine receptor [9]): 3.51 nM
- pKb (D(2) dopamine receptor [9]): 8.45

SMILES: C1=C(c2c[nH]c3ccccc23)CCN(Cc2cccs2)C1
- IC50 [1]: 2410 nM
- Activity (Mus musculus [15]): Active
- Activity (Mus musculus [16]): Active
- Activity (Mus musculus [17]): Active
- Activity (Mus musculus [18]): Active
- Ki [2]: 171 nM
- Selectivity ratio (Homo sapiens): 50
- Emax [3]: 67%
- Activity (D(2) dopamine receptor [4]): Dose-dependent effect
- Activity [19]: Non-Toxic
- Ki [5]: 305 nM
- Activity (D(2) dopamine receptor [6]): inactive
- Kb [7]: 238 nM
- Ki (D(2) dopamine receptor [8]): 71.9 nM
- Activity (D(2) dopamine receptor [9]): Dose-dependent effect
- Kb (D(2) dopamine receptor [9]): 5.06 nM
- pKb (D(2) dopamine receptor [9]): 8.3

SMILES: COc1cccc(CN2CC=C(c3c[nH]c4ccc(OC)cc34)CC2)c1
- inhibition [10]: 24%
- Ki [5]: 135 nM
- Ki (D(2) dopamine receptor [8]): 112 nM

SMILES: CCOc1ccc2[nH]cc(C3=CCN(Cc4cccc(OC)c4)CC3)c2c1
- inhibition [10]: 3%
- Ki [5]: 160 nM
- Ki (D(2) dopamine receptor [8]): 108 nM

SMILES: COc1ccc(CN2CC=C(c3c[nH]c4ccc(OC)cc34)CC2)cc1
- inhibition [10]: 48%
- Ki [5]: 134 nM
- Ki (D(2) dopamine receptor [8]): 148 nM
